Measured values published in patent US20230151057A1, “LACTIC ACID BACTERIA GROWTH PROMOTER” (Asahi Group Holdings, Ltd., priority 2020, published 2023).
Ends that are not written are not given here.

Legend:
Type in all cases: cell-based
[1] = test system: Lactobacillus gasseri (FERM BP-11331); assay: Growth-promoting effect on Lactobacillus gasseri in modified MRS medium (particle count)
Source text: Nitrogen sources in MRS medium were reduced to find a medium composition that achieves a total bacterial count of about 1.0×10^8 cell/mL to 1.0×10^9 cell/mL after culturing of each of the six bacterial strains Lactobacillus gasseri (FERNM BP-11331), Lactobacillus acidophilus (FERM BP-4981), Lactobacillus amylovorus (FERM BP-11255), Lactobacillus curvatus (NITE P-02033), Lactobacillus plantarum, and Lactobacillus brevis. This composition, named “modified MRS medium”, was used for the evaluation. Here, for the composition of the MRS medium, a composition described in a medium catalog provided by BD (Becton, Dickinson and Company) was used as a reference. The compositions of the MRS medium and the modified MRS medium are as follows. By chemical synthesis, 28 kinds of candidate peptides having the sequences shown below were provided. Each candidate peptide was added to the modified MRS medium at 0.25 mg/mL to provide a medium to be evaluated. The lactic acid bacterium Lactobacillus gasseri was inoculated at 1.0×10^7 cells/mL to the provided medium to be evaluated, and culture was carried out at a temperature of 37° C. for a culture period of 18 hours. The resulting culture was collected, and subjected to measurement of the particle concentration (particles/mL) as a characteristic value that can be used as an index of the bacterial cell growth, using a particle count analyzer (CDA-1000, Sysmex). The rate of increase (%) was calculated relative to a control value obtained using a medium to which no peptide was added, which was taken as 100%. Using the dipeptide LF (Leu-Phe) and an equimolar mixture of leucine (L) and phenylalanine (F), culture was carried out in the same manner as in Example 1, and the growth-promoting effects of the dipeptide and the amino acid mixture on the lactic acid bacterium were evaluated. Using a dipeptide (LF) as the peptide, the growth-promoting effect on a lactic acid bacterium was evaluated in the same manner except that the concentration of the dipeptide added was 0.1 mg/mL, 0.25 mg/mL, or 1.0 mg/mL.

Lactobacillus plantarum = assay: Growth-promoting effect on Lactobacillus plantarum in modified MRS medium (particle count); conditions: Example 5, peptide 0.25 mg/mL, 37° C., 18 hours; for Rate of increase: control = 100%
Source text: Nitrogen sources in MRS medium were reduced to find a medium composition that achieves a total bacterial count of about 1.0×10^8 cell/mL to 1.0×10^9 cell/mL after culturing of each of the six bacterial strains Lactobacillus gasseri (FERNM BP-11331), Lactobacillus acidophilus (FERM BP-4981), Lactobacillus amylovorus (FERM BP-11255), Lactobacillus curvatus (NITE P-02033), Lactobacillus plantarum, and Lactobacillus brevis. This composition, named “modified MRS medium”, was used for the evaluation. Here, for the composition of the MRS medium, a composition described in a medium catalog provided by BD (Becton, Dickinson and Company) was used as a reference. The compositions of the MRS medium and the modified MRS medium are as follows. By chemical synthesis, 28 kinds of candidate peptides having the sequences shown below were provided. Each candidate peptide was added to the modified MRS medium at 0.25 mg/mL to provide a medium to be evaluated. The lactic acid bacterium Lactobacillus gasseri was inoculated at 1.0×10^7 cells/mL to the provided medium to be evaluated, and culture was carried out at a temperature of 37° C. for a culture period of 18 hours. The resulting culture was collected, and subjected to measurement of the particle concentration (particles/mL) as a characteristic value that can be used as an index of the bacterial cell growth, using a particle count analyzer (CDA-1000, Sysmex). The rate of increase (%) was calculated relative to a control value obtained using a medium to which no peptide was added, which was taken as 100%. For eight kinds of candidate peptides having the sequences shown below, the growth-promoting effect on a lactic acid bacterium was evaluated in the same manner as in Example 1 except that Lactobacillus plantarum was used instead of Lactobacillus gasseri.

[2] = test system: Lactobacillus curvatus (NITE P-02033); assay: Growth-promoting effect on Lactobacillus curvatus in modified MRS medium (particle count); conditions: Example 4, peptide 0.25 mg/mL, 37° C., 18 hours; for Rate of increase: control = 100%
Source text: Nitrogen sources in MRS medium were reduced to find a medium composition that achieves a total bacterial count of about 1.0×10^8 cell/mL to 1.0×10^9 cell/mL after culturing of each of the six bacterial strains Lactobacillus gasseri (FERNM BP-11331), Lactobacillus acidophilus (FERM BP-4981), Lactobacillus amylovorus (FERM BP-11255), Lactobacillus curvatus (NITE P-02033), Lactobacillus plantarum, and Lactobacillus brevis. This composition, named “modified MRS medium”, was used for the evaluation. Here, for the composition of the MRS medium, a composition described in a medium catalog provided by BD (Becton, Dickinson and Company) was used as a reference. The compositions of the MRS medium and the modified MRS medium are as follows. By chemical synthesis, 28 kinds of candidate peptides having the sequences shown below were provided. Each candidate peptide was added to the modified MRS medium at 0.25 mg/mL to provide a medium to be evaluated. The lactic acid bacterium Lactobacillus gasseri was inoculated at 1.0×10^7 cells/mL to the provided medium to be evaluated, and culture was carried out at a temperature of 37° C. for a culture period of 18 hours. The resulting culture was collected, and subjected to measurement of the particle concentration (particles/mL) as a characteristic value that can be used as an index of the bacterial cell growth, using a particle count analyzer (CDA-1000, Sysmex). The rate of increase (%) was calculated relative to a control value obtained using a medium to which no peptide was added, which was taken as 100%. For eight kinds of candidate peptides having the sequences shown below, the growth-promoting effect on a lactic acid bacterium was evaluated in the same manner as in Example 1 except that Lactobacillus curvatus was used instead of Lactobacillus gasseri.

[3] = Example 1, peptide 0.25 mg/mL, 37° C., 18 hours, inoculum 1.0×10^7 cells/mL
[4] = Example 1, peptide 0.25 mg/mL, 37° C., 18 hours, control without peptide = 100%

AGPQTF
Particle concentration [1, 3]: 2.5e+08 mL⁻¹
Rate of increase [1, 4]: 126%
Particle concentration (Lactobacillus plantarum): 3.36e+09 mL⁻¹
Rate of increase (Lactobacillus plantarum): 108%
Particle concentration [2]: 1.58e+08 mL⁻¹
Rate of increase [2]: 111%

APKPDYPIA (listed as Saccharomyces cerevisiae) [Ala-Pro-Lys-Pro-Asp-Tyr-Pro-Ile-Ala]
Particle concentration [1, 3]: 2.37e+08 mL⁻¹
Rate of increase [1, 4]: 137%
Particle concentration (Lactobacillus plantarum): 3.45e+09 mL⁻¹
Rate of increase (Lactobacillus plantarum): 111%
Particle concentration [2]: 1.6e+08 mL⁻¹
Rate of increase [2]: 112%

Leu-Phe [LF]
Particle concentration ([1]; Comparative Example 1, dipeptide vs equimolar amino acid mixture, cultured as in Example 1): 3.88e+08 mL⁻¹
Rate of increase ([1]; Comparative Example 1, dipeptide vs equimolar amino acid mixture, control = 100%): 121%
Particle concentration [1, 3]: 2.49e+08 mL⁻¹
Rate of increase [1, 4]: 118%
Particle concentration ([1]; Example 7, addition concentration 0.1 mg/mL): 2.38e+08 mL⁻¹
Rate of increase ([1]; Example 7, addition concentration 0.1 mg/mL, control = 100%): 112%
Particle concentration ([1]; Example 7, addition concentration 0.25 mg/mL): 2.49e+08 mL⁻¹
Rate of increase ([1]; Example 7, addition concentration 0.25 mg/mL, control = 100%): 118%
Particle concentration ([1]; Example 7, addition concentration 1.0 mg/mL): 3.17e+08 mL⁻¹
Rate of increase ([1]; Example 7, addition concentration 1.0 mg/mL, control = 100%): 150%
Particle concentration (Lactobacillus plantarum): 3.32e+09 mL⁻¹
Rate of increase (Lactobacillus plantarum): 107%
Particle concentration [2]: 2.22e+08 mL⁻¹
Rate of increase [2]: 124%

Leu-Pro-Trp-Gly (LPWG; listed as Saccharomyces cerevisiae)
Particle concentration [1, 3]: 2.45e+08 mL⁻¹
Rate of increase [1, 4]: 142%
Particle concentration (Lactobacillus plantarum): 3.09e+09 mL⁻¹
Rate of increase (Lactobacillus plantarum): 100%
Particle concentration [2]: 1.97e+08 mL⁻¹
Rate of increase [2]: 109%

Pro-Ser-Val-Phe (PSVF; listed as Saccharomyces cerevisiae)
Particle concentration [1, 3]: 2.32e+08 mL⁻¹
Rate of increase [1, 4]: 134%
Particle concentration (Lactobacillus plantarum): 3.17e+09 mL⁻¹
Rate of increase (Lactobacillus plantarum): 102%
Particle concentration [2]: 1.68e+08 mL⁻¹
Rate of increase [2]: 119%

Pro-Val-Phe [PVF]
Particle concentration [1, 3]: 2.51e+08 mL⁻¹
Rate of increase [1, 4]: 137%
Particle concentration (Lactobacillus plantarum): 2.92e+09 mL⁻¹
Rate of increase (Lactobacillus plantarum): 94%
Particle concentration [2]: 1.71e+08 mL⁻¹
Rate of increase [2]: 95%

Pro-Val-Tyr [PVY]
Particle concentration [1, 3]: 2.27e+08 mL⁻¹
Rate of increase [1, 4]: 121%
Particle concentration (Lactobacillus plantarum): 3.23e+09 mL⁻¹
Rate of increase (Lactobacillus plantarum): 104%
Particle concentration [2]: 1.64e+08 mL⁻¹
Rate of increase [2]: 116%

Val-Pro-Ala-Phe (VPAF; listed as Saccharomyces cerevisiae)
Particle concentration [1, 3]: 2.62e+08 mL⁻¹
Rate of increase [1, 4]: 152%
Particle concentration (Lactobacillus plantarum): 3.27e+09 mL⁻¹
Rate of increase (Lactobacillus plantarum): 105%
Particle concentration [2]: 2.15e+08 mL⁻¹
Rate of increase [2]: 117%
